These results are taken from US5677459A, “Methods for the preparation of modulators of acetylcholine receptors” (Sibia Neurosciences, Inc., priority 1995, dated 1997).

Where a name gives a salt, the structure may show the parent alone. Read-outs that look alike come from different tables or passages of the source.

For assay [1], the target named is muscarinic acetylcholine receptors. Nature of the assay: ^3 H-QNB (quinuclidinyl benzilate) binding/displacement, rat cerebral membranes.
For assay [2], the target named is T1, nicotinic acetylcholine receptor (Rattus norvegicus, UniProt P09483+P12390).
T1 construct: the brains removed and the cerebral cortex dissected on ice; from tissue; host or cells: cerebral cortex synaptic membranes of male Sprague-Dawley rats
T1 sequence (P09483 31-630): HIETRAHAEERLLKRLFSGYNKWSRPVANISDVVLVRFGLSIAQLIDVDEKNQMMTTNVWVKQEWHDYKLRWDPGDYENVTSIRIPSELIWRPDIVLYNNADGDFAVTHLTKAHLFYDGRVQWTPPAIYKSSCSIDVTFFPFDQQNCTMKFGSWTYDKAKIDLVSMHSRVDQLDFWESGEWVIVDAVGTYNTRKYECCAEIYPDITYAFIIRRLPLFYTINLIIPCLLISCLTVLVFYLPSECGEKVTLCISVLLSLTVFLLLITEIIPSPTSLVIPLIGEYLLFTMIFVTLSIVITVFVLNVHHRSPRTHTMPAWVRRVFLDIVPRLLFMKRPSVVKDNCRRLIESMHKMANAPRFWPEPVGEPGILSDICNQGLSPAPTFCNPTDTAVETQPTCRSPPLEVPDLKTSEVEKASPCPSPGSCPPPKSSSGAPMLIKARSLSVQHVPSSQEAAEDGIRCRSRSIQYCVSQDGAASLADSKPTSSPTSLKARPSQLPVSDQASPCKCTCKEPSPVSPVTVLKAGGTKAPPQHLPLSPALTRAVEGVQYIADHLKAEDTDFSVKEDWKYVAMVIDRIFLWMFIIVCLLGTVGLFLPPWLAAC
T1 sequence (P12390 25-500): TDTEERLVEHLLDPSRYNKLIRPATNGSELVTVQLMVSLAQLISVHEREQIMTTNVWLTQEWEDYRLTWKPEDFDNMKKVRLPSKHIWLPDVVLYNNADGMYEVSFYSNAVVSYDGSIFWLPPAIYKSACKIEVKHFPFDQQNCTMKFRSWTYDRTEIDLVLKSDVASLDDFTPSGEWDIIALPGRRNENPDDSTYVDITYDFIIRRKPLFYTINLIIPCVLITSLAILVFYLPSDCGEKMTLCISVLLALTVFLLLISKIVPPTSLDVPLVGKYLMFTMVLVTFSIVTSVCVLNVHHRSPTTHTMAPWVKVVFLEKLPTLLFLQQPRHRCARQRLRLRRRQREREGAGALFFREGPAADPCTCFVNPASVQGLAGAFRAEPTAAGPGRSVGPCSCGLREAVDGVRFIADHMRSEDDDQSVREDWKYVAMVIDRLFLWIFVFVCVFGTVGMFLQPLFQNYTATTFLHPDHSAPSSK
Nature of the assay: ^3 H-Nicotine binding/displacement, rat cerebral membranes. The procedure:
^3 H-Nicotine binding to rat cerebral membranes was performed according to modifications of the method of Flyn and Mash (J. Neurochem. 47:1948 (1986)). ^3 H-Nicotine (80 ci/mmol; New England Nuclear Corporation, Boston, Mass.) was used as the ligand for nicotinic acetylcholine receptor binding assays. All other reagents were purchased from the Sigma Chemical Co. (St. Louis, Mo.).
Male Sprague-Dawley rats (250-400 gm) were sacrificed by decapitation, the brains removed and the cerebral cortex dissected on ice. Synaptic membranes were prepared by homogenizing the cortical tissue in 20 volumes of ice-cold modified Tris buffer (50 mM Tris pH 7.4, 120 mM NaCl, 5 mM KCl, 2 mM EDTA, 1 mM PMSF) with a polytron (20 sec at setting 5-6) followed by centrifugation (15 min at 5,000×g) at 4° C. The resultant pellet was rehomogenized and centrifuged twice. The final pellet was resuspended in ice-cold assay buffer (50 mM Tris pH 7.4, 120 mM NaCl, 5 mM KCl, 2 mM CaCl2, 1 mM MgCl2) at a concentration of membrane equivalent to 1 gm wet weight cortex per 10 ml buffer. After protein determination the final membrane preparation was diluted with buffer to 3 mg protein/mi. This membrane preparation was used in either the fresh state or frozen (-70° C.) then thawed.
The binding assay is performed manually using 96-well plates, or using a Biomek automated work station (Beckman Instrument Co.). ^3 H-Nicotine was diluted in assay buffer to give a final concentration of 1.9 nM. The Biomek automated work station was programmed to automatically transfer 750 μl of assay buffer with ^3 H-nicotine, 230 μl of membrane preparation and 20 μl of solution containing the compound of interest in assay buffer, DMSO, ethanol:DMSO (1:1) or appropriate vehicle to the 96-well plate. Atropine was added to the incubation buffer at a final concentration of 3 μM to block binding to muscarinic acetylcholine receptor sites. The plates were maintained on ice for 60 min and the tissue-bound radioactivity was separated from the free by rapid filtration in a Brandel Harvester onto GF/C filters presoaked in 0.5% polyethyleneimine for at least 2 hr. The filters were washed with 4×2 ml of ice-cold assay buffer and filters were transferred to vials to which 4 ml of scintillation cocktail was added. The radioactivity was measured in a LS-6500 Beckman Liquid Scintillation Counter in an autodpm mode. Data were analyzed bylog-logit transformation or non-linear regression analysis (e.g., employing GraphPad Prism, available from GraphPad Software, San Diego, Calif.) to give IC50 values. Non-specific binding was defined by 10 μM cytisine.

Assay [3] relates to ^3 H-Dopamine release, rat striatal slices. The assay can be described thus: Ligand-stimulated ^3 H-dopamine release from rat striatal slices. In kind it is cell-based. The conditions noted are these: Rattus norvegicus, read-out: % of Nicotine Response, ^3 H-Dopamine, Striatum. The procedure: (§1) Measurement of ^3 H-dopamine release from rat striatal slices was performed according to the method of Sacaan et al. (J. Neurochem. 59:245 (1992)). Male Sprague-Dawley rats (250-300 g) were decapitated and the striata or olfactory tubercles dissected quickly on a cold glass surface. The tissue was chopped to a thickness of 300 μm with a McIlwain tissue chopper. After chopping again at right angles the tissue was dispersed and incubated for 10 min. at 37° C. in oxygenated Kreb's buffer. ^3 H-Dopamine (40 Ci/mmol, NEN- Dupont, Boston, Mass.) was added (50 nM) and the tissue was incubated for 30 min. in Kreb's buffer containing 10 μM pargyline and 0.5 mM ascorbic acid. Aliquots of the minced tissue were then transferred to chambers of a Brandel Superfusion system in which the tissue was supported on Whatman GF/B filter discs. The tissue was then superfused with buffer at a constant flow rate of 0.3 ml/min by means of a Brandel peristaltic pump. The perfusate was collected in plastic scintillation vials in 3-min fractions, and the radioactivity was estimated by scintillation spectrophotometry. The superfusate for the first 120 min was discarded. After two baseline fractions had been collected, the superfusion buffer was switched to fresh buffer with or without compound of interest. At the end of the experiment the filter and the tissue were removed, and the radiolabeled neurotransmitter content was estimated after extraction into scintillation fluid. The fractional efflux of radiolabeled neurotransmitter was estimated as the amount of radioactivity in the perfusate fraction relative to the total amount in the tissue.
(§2) Results of studies of the effects of an invention compound (as compared to the effect of nicotine) on the release of neurotransmitters from rat brain slices are presented in Table II. Results presented in Part A of the Table are expressed as the percent fractional release and results presented in Part B of the Table are expressed as a percentage, relative to nicotine response.

Assay [4] deals with ^3 H-Norepinephrine release, rat hippocampus slices. Nature of the assay: Ligand-stimulated ^3 H-norepinephrine release from rat hippocampus slices. In kind it is cell-based. The conditions noted are these: for Emax at 300 µM: Rattus norvegicus, nicotine 300 μM = 100, read-out: % of Nicotine Response, ^3 H-Norepinephrine, Hippocampus; for % of Nicotine Response, ^3 H-Norepinephrine, Hippocampus: 300 μM, nicotine 300 μM = 100. Here is the method:
as §1
Following essentially the same procedure as set forth above, the amount of ^3 H-norepinephrine released from rat hippocampus, thalamus and prefrontal cortex slices superfused with buffer containing (or lacking) compounds of interest was also measured.
as §2

The test system of the next assay is rats. The assay can be described thus: Locomotor activity assay. In kind it is in vivo, rat (male Sprague-Dawley). The conditions noted are these: Rattus norvegicus, sc, 20 mg/kg, s.c. The procedure: This assay can be used to assess the primary effect of a compound on general motor activity. A decrease in locomotor activity is indicative of a possible sedative effect on the animal, whereas an increase in locomotor activity is indicative of a stimulant effect on the animal.
Locomotor activity of rats (male Sprague-Dawley (Harlan) weighing 200-250 gm) was measured for 2 hrs in photocell cages immediately after administration of the invention compound. Prior to the test day, the animals were placed in the activity cages for 3 hrs to familiarize them with the experimental environment. On the test day, the animals were placed in the photocell cages and then injected with compound 1.5 hrs later.
The photocell cages were standard rodent cages (30 cm×20 cm×40 cm) with four infrared beams crossing the long axis. The animals were under no motivational constraints and were free to move around. Movements from one infrared beam to another (ambulation) were called "crossover"; successive interruptions of the same beam (vertical and other movements such as grooming) were called "general activity."

The mark [5] stands for this setting: ^3 H-QNB 60 pM, rat cerebral membranes.
Where [6] appears, read: ^3 H-nicotine 1.9 nM, rat cerebral membranes, read-out: IC50, Nicotine.
Setting [7] is: compounds at 300 μM, nicotine 10 μM = 100.

For `CN1CCCC1c1cncc(C#CC(C)(C)O)c1` (stereo not shown), the IC50 is above 100000 nM in assay [1] (setting [5]) and 38 nM in assay [2] (setting [6]). Further, the values for the Emax at 300 µM in assay [3] (setting [7]) and in assay [4] were 118% and 18.3%, respectively.
Regarding `C#Cc1cncc(C2CCCN2C)c1` (single isomer, unassigned) [5-Ethynyl-3-(1-methyl-2-pyrrolidinyl)pyridine di-p-toluoyl-L-tartrate], the IC50 in assay [2] (IC50, Nicotine) came to 2.6 nM. In assay [3] (compound at 300 μM, Nicotine concentration was 300 μM), the Emax at 300 µM was 155%.
In assay [2] (IC50, Nicotine), `C#Cc1cncc(C2CCCN2C)c1` (single isomer, unassigned) [5-ethynyl-3-(1-methyl-2-pyrrolidinyl)pyridine di-p-toluoyl-D-tartrate] registered an IC50 of 78 nM. Also, in assay [3] (setting [7]), the Emax at 300 µM came out at 33%.
With `C#Cc1cncc(C2CCCN2C)c1` (single isomer, unassigned) [R^5 = 5-(1-ethynyl) Di-p-toluoyl-D-tartrate] [5-ethynyl-3-(1-methyl-2-pyrrolidinyl)pyridine di-p-toluoyl-D-tartrate], the IC50 in assay [1] (setting [5]) was 4700 nM. Also, in assay [4], the “% of Nicotine Response, ^3 H-Norepinephrine, Hippocampus” value came to 3.7%.
For the compound `C#Cc1cncc(C2CCCN2C)c1` (single isomer, unassigned) [R^5 = 5-(1-ethynyl) Di-p-toluoyl-L-tartrate] [5-Ethynyl-3-(1-methyl-2-pyrrolidinyl)pyridine di-p-toluoyl-L-tartrate], the “% of Nicotine Response, ^3 H-Norepinephrine, Hippocampus” value in assay [4] is 17.4%.
In the case of `Fc1ccc(-c2cncc(C3CCCCN3)c2)cc1` (stereo not shown) [5-(4-Fluorophenyl)-3-(2-piperidinyl)pyridine fumarate], the concentration for half-maximal inhibition (IC50) was determined as 24900 nM in assay [1] (setting [5]) and 490 nM in assay [2] (setting [6]).
`C#Cc1cncc(C2CCC(=O)N2C)c1` (stereo not shown) [A = C(O); R^7 = CH3; R^5 = 5-(1-ethynyl), 5-Ethynyl-3-(1-methyl-5-pyrrolidin-2-onyl)pyridine]: the IC50 in assay [1] (setting [5]) and in assay [2] (setting [6]) was above 100000 nM in each case.
In the case of `CN(C)CC#Cc1cncc(C2CCCN2C)c1` (stereo not shown) [R^5 = 5-(1-dimethylamino-2-propynyl), 5-[3-(1-Dimethylamino-2-propynyl)]-3-(1-methyl-2-pyrrolidinyl)pyridine fumarate], the figures for the IC50 in assay [1] (setting [5]) and in assay [2] (setting [6]) were 100000 nM and 25 nM, respectively. For the same compound, in assay [3] (setting [7]), the Emax at 300 µM worked out at 235%.
Regarding `CN1CCCC1c1cncc(C#CCO)c1` (stereo not shown) [R^5 = 5-(1-hydroxy-2-propynyl)], the figures for the IC50 in assay [1] (setting [5]) and in assay [2] (setting [6]) were above 100000 nM and 3.6 nM, respectively. Further, the Emax at 300 µM in assay [3] (setting [7]) worked out at 157%; in assay [4] it was 39%.
Taken in the same sequence, the figures for `CN1CCCC1c1cncc(C#CCCO)c1` (stereo not shown) [R^5 = 5-(1-hydroxy-3-butynyl)] were above 100000 nM, 6 nM, 100% and 36.3%.
In the case of `COCC#Cc1cncc(C2CCCN2C)c1` (stereo not shown) [R^5 = 5-(1-methoxy-2-propynyl), 5-[3-(1-Methoxy-2-propynyl)]-3-(1-methyl-2-pyrrolidinyl)pyridine fumarate], the IC50 is above 100000 nM in assay [1] (setting [5]) and 2.6 nM in assay [2] (setting [6]). In addition, the Emax at 300 µM was 61.7% in assay [3] (setting [7]) and 7.4% in assay [4].
For `CCCC#Cc1cncc(C2CCCN2C)c1` (stereo not shown) [R^5 = 5-(1-pentynyl), 5-[1-(1-Pentynyl)]-3-(1-methyl-2-pyrrolidinyl)pyridine fumarate], the IC50 in assay [1] (setting [5]) was 39000 nM; in assay [2] (setting [6]), 4.2 nM. Further, in assay [3] (setting [7]), the Emax at 300 µM stood at 27.7%.
As for `CC#Cc1cncc(C2CCCN2C)c1` (stereo not shown) [R^5 = 5-(1-propynyl), 5-[1-(1-Propynyl)]-3-(1-methyl-2-pyrrolidinyl)pyridine fumarate], the IC50 was above 100000 nM in assay [1] (setting [5]) and 29 nM in assay [2] (setting [6]).
`CC(O)C#Cc1cncc(C2CCCN2C)c1` (stereo not shown) [R^5 = 5-(2-hydroxy-3-butynyl), 5-[4-(2-Hydroxy-3-butynyl)]-3-(1-methyl-2-pyrrolidinyl)pyridine fumarate]: the results for the 50% inhibitory concentration (IC50) in assay [1] (setting [5]) and in assay [2] (setting [6]) were above 100000 nM and 11 nM, respectively. For the same compound, the Emax at 300 µM in assay [3] (setting [7]) turned out to be 98%; in assay [4], 30.5%.
Turning to `CN1CCCC1c1cncc(C#CCCCCCCC#Cc2cncc(C3CCCN3C)c2)c1` (stereo not shown) [R^5 = See below*, 1,10-Bis-5-[3-(1-methyl-2-pyrrolidinyl)pyridine]-deca-1,9-diyne fumarate], the IC50 stood at 7500 nM in assay [1] and 5.2 nM in assay [2] (IC50, Nicotine, ^3 H-nicotine 1.9 nM, rat cerebral membranes).
As for `CN1CCCC1c1cncc(C#Cc2ccccc2)c1` (stereo not shown) [R^5 = phenylethynyl, 5-Phenylethynyl-3-(1-methyl-2-pyrrolidinyl)pyridine fumarate], the change in vivo at 20 mg/kg is 7% with rats (1 h, 0-60 min, read-out: Ambulation (cross overs), percent of change from control); 3% with rats (1 h, 0-60 min, read-out: General Activity (beam breaks), percent of change from control); -16% in the assay on rats (2 h, 60-120 min, read-out: Ambulation (cross overs), percent of change from control); -11% in the assay on rats (2 h, 60-120 min, read-out: General Activity (beam breaks), percent of change from control).
With `C#Cc1cncc(C2CCCN2)c1` (stereo not shown) [R^7 = H; R^5 = 5-(1-ethynyl), 5-Ethynyl-3-(1-H-2-pyrrolidinyl)pyridine fumarate], the IC50 in assay [1] (setting [5]) is 8900 nM; in assay [2] (setting [6]) it was 58 nM. For the same compound, the Emax at 300 µM in assay [3] (setting [7]) came out at 61.7%; in assay [4], 13.4%.

In general, IC50 refers to the point on the concentration scale where inhibition reaches its midpoint.
